According to ChEMBL document CHEMBL1777706, “Discovery of selective and orally available spiro-3-piperidyl ATP-competitive MK2 inhibitors” (Bioorg Med Chem Lett, 2011):
The source made the active and inactive calls. No cut-off for these calls is given here.

What was measured:
[1] = molecular target: T1, MAP kinase-activated protein kinase 2 (Homo sapiens, UniProt P49137); experiment: Inhibition of MK2 pretreated for 30 mins before fluorescein labeled substrate peptide addition measured after 2 hrs by IMAP assay
T1 sequence (P49137 whole entry): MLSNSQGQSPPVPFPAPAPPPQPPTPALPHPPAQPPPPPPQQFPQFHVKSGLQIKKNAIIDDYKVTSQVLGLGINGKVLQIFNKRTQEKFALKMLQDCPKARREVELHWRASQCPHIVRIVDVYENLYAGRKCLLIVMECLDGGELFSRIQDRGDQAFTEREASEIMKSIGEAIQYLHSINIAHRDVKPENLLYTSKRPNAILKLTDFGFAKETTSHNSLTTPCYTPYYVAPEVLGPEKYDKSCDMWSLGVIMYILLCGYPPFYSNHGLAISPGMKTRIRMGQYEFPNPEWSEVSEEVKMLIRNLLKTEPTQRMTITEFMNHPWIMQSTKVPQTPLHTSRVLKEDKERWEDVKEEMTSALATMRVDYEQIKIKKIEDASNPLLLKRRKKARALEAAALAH

[2] = Dissociation constant, pKa of the compound at pH 7.4; format: physicochemical
[3] = Half life in human liver microsomes; format: ADME, Microsome
[4] = Half life in rat liver microsomes; format: ADME, Microsome
[5] = AUC in po dosed rat; format: ADME, organism-based; details: plasma
THP-1 [6] = experiment: Cytotoxicity against human THP1 cells by Alamar blue assay; format: cell-based
[7] = Inhibition of p38
[8] = molecular target: Serine/threonine-protein kinase pim-1 (Homo sapiens) (UniProt P11309); experiment: Inhibition of PIM1 at 1 uM
Chain of Serine/threonine-protein kinase pim-1 (Homo sapiens) (P11309 whole entry, looked up): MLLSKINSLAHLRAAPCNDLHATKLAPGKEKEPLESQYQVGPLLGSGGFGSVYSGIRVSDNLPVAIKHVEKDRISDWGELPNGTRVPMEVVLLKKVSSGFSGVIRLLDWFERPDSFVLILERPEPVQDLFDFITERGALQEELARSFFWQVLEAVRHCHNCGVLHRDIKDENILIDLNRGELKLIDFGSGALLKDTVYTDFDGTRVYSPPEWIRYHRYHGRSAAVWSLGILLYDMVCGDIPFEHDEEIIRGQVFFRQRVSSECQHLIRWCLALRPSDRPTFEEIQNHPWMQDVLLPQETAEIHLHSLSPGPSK

[9] = molecular target: Serine/threonine-protein kinase pim-3 (Homo sapiens) (UniProt Q86V86); experiment: Inhibition of PIM3 at 1 uM
[10] = molecular target: Serine/threonine-protein kinase Chk2 (Homo sapiens) (UniProt O96017); experiment: Inhibition of CHK2 at 1 uM
Chain of Serine/threonine-protein kinase Chk2 (Homo sapiens) (O96017 whole entry): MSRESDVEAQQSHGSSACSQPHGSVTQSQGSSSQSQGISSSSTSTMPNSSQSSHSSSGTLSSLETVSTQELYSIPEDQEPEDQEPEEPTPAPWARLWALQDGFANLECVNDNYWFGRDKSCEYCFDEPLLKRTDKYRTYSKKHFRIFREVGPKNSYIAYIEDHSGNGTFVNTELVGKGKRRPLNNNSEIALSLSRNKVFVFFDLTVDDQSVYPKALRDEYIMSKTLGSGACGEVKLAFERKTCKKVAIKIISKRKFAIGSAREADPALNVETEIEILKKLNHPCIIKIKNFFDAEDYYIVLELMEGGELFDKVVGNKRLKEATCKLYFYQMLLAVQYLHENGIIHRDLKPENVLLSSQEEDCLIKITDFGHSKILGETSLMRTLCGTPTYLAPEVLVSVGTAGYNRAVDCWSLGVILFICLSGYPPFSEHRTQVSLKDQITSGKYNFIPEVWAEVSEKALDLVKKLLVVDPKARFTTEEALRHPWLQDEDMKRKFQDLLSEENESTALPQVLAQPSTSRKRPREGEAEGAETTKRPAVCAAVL

[11] = molecular target: T2, Serine/threonine-protein kinase 17A (Homo sapiens) (UniProt Q9UEE5); experiment: Inhibition of DRAK1 at 1 uM
T2 sequence (whole entry): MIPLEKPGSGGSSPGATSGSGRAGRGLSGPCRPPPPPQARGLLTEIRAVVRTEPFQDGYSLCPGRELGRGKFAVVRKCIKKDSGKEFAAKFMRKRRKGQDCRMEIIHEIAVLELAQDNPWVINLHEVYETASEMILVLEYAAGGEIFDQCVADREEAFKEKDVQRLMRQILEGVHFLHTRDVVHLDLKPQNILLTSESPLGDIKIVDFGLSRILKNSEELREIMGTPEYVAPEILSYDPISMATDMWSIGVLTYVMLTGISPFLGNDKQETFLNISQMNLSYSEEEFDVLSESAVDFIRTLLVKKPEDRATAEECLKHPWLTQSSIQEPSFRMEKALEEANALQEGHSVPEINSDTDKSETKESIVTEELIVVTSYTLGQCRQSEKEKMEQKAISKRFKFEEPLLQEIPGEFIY

[12] = molecular target: Mitogen-activated protein kinase 3 (Homo sapiens) (UniProt P27361); experiment: Inhibition of ERK1 at 1 uM
Chain of Mitogen-activated protein kinase 3 (Homo sapiens) (P27361 whole entry): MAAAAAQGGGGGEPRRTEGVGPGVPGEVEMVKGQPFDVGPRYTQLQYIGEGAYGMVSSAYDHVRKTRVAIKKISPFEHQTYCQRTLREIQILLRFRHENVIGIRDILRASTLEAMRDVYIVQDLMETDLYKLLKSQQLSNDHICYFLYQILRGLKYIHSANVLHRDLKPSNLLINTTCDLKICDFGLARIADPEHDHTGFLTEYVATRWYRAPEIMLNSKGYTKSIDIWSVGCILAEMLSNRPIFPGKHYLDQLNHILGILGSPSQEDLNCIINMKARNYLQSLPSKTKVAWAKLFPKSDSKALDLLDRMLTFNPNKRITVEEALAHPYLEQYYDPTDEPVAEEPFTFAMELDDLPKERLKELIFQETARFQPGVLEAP

in vitro = details: human, Caco-2
Description: Permeability across human Caco2 cells

[13] = molecular target: Mitogen-activated protein kinase 1 (Homo sapiens) (UniProt P28482); experiment: Inhibition of ERK2 at 1 uM
Chain of Mitogen-activated protein kinase 1 (Homo sapiens) (P28482 whole entry, looked up): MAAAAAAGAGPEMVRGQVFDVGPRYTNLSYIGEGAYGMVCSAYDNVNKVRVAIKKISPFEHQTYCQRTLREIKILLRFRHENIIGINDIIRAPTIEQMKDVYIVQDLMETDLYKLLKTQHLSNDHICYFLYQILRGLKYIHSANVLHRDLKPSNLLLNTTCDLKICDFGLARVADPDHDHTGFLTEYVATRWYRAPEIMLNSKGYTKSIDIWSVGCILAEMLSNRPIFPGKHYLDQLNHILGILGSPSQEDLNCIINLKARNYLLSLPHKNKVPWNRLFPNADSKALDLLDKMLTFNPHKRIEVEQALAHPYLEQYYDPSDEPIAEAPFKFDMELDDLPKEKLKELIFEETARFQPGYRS

THP-1 [14] = experiment: Antiinflammatory activity in human THP1 cells assessed as inhibition of LPS-induced TNFalpha production pretreated 30 mins before LPS challenge measured after 4 hrs; format: functional, cell-based
[15] = molecular target: T1, MAP kinase-activated protein kinase 2; experiment: Inhibition of MK2 in LPS-stimulated human THP1 cells assessed as inhibition of Hsp27 phosphorylation pretreated 60 mins before LPS challenge measured after 10 mins; format: cell-based, THP-1
PBMC = experiment: Antiinflammatory activity in human PBMC cells assessed as inhibition of LPS-induced TNFalpha production pretreated 30 mins before LPS challenge measured after 4 hrs by ELISA; format: functional, cell-based
[16] = Oral bioavailability in mouse; format: ADME, organism-based; details: in vivo
[17] = molecular target: MAP kinase-activated protein kinase 3 (Homo sapiens) (UniProt Q16644); experiment: Inhibition of MK3 at 1 uM
Chain of MAP kinase-activated protein kinase 3 (Homo sapiens) (Q16644 whole entry, looked up): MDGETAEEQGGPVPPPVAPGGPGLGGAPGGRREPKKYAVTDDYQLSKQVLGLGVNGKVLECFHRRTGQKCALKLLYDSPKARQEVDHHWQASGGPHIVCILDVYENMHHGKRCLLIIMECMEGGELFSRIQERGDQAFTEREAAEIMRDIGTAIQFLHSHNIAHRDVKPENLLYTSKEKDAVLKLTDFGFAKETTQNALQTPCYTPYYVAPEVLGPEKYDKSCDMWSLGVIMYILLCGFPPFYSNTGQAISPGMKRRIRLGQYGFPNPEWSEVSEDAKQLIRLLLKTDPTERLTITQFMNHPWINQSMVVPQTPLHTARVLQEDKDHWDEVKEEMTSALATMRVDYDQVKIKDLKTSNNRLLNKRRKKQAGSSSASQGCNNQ

[18] = molecular target: T3, MAP kinase-activated protein kinase 5 (Homo sapiens) (UniProt Q8IW41); experiment: Inhibition of MK5 at 1 uM
T3 sequence (whole entry): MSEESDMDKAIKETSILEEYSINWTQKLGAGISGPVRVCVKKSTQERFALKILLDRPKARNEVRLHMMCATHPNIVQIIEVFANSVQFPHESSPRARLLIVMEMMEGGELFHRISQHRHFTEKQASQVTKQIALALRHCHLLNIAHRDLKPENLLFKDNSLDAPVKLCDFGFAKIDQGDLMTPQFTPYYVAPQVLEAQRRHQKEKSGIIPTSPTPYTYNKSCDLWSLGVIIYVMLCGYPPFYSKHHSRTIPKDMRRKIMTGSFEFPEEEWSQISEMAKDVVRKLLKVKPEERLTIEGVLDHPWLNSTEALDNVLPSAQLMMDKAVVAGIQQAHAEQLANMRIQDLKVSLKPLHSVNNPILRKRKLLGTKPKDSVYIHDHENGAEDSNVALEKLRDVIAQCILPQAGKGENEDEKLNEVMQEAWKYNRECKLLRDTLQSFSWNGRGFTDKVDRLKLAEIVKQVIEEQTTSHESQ

| SMILES | EC50 [1] [nM] | pKa [2] | half-life [3] [h] | half-life [4] [h] | AUC [5] [µM·h] | Activity (THP-1 [6]) | inhibition [7] | inhibition [8] [%] | inhibition [9] [%] | inhibition [10] [%] | inhibition [11] [%] | inhibition [12] [%] | Papp (in vitro) [×10⁻⁶ cm/s] | inhibition [13] [%] | EC50 (THP-1 [14]) [nM] | EC50 [15] [nM] | EC50 (PBMC) [nM] | bioavailability [16] [%] | inhibition [17] [%] | inhibition [18] [%] |
| --- | --- | --- | --- | --- | --- | --- | --- | --- | --- | --- | --- | --- | --- | --- | --- | --- | --- | --- | --- | --- |
| O=C1NCC2(CCCNC2)c2[nH]c(-c3ccnc(-c4cc5ccccc5o4)n3)cc21 (racemic) | 11 | 8.4 | > 1 | > 1 | 0.472 | Non-toxic | inactive | > 80 | > 80 | > 80 | > 80 | > 80 | 1.5 | > 80 |  |  |  |  |  |  |
| O=C1NCC2(CCCNC2)c2[nH]c(-c3ccnc(-c4ccc5c(c4)OCO5)n3)cc21 (racemic) | 28 | 8.3 | > 1 | 0.808 | 3.21 |  | inactive | > 80 | > 80 | > 80 | > 80 | > 80 | 3.4 | > 80 | 1400 | 930 | 1100 | 48 | > 95 | > 95 |
| COc1cncc(-c2nccc(-c3cc4c([nH]3)C3(CCCNC3)CNC4=O)n2)c1 (racemic) | 24 | 8.4 | 0.945 | 0.702 |  |  | inactive | > 80 | > 80 | > 80 | > 80 | > 80 |  | > 80 | 1400 | 900 | 1000 |  | > 95 | > 95 |
| O=C1NCC2(CCNCC2)c2[nH]c(-c3ccnc(-c4ccc5c(c4)OCO5)n3)cc21 | 4.3 | 9.3 | > 1 | > 1 | < 0.006 |  | inactive | > 80 | > 80 | > 80 | > 80 | > 80 | 0.1 | > 80 | 910 | 620 |  | 0.7 |  |  |
| COc1cncc(-c2nccc(-c3cc4c([nH]3)[C@]3(CCCNC3)CNC4=O)n2)c1 | 9.3 |  |  |  |  |  | inactive | > 80 | > 80 | > 80 | > 80 | > 80 |  | > 80 | 2400 | 1100 | 1300 |  |  |  |
| CCN1CCC2(CC1)CNC(=O)c1cc(-c3ccnc(-c4cc5ccccc5o4)n3)[nH]c12 | 59 | 8.6 | > 1 | > 0.993 | 0.154 | > 10 µM | inactive | > 80 | > 80 | > 80 | > 80 | > 80 | 0.8 | > 80 | 1600 | > 10000 |  |  |  |  |
| COCCCOc1ccc(-c2nccc(-c3cc4c([nH]3)C3(CCCNC3)CNC4=O)n2)cn1 (racemic) | 21 | 8.2 | > 1 | > 1 | 0.882 |  | inactive | > 80 | > 80 | > 80 | > 80 | > 80 | 4.2 | > 80 | 1500 | 1400 | 920 |  |  |  |
| CN1CCC2(CC1)CNC(=O)c1cc(-c3ccnc(-c4cc5ccccc5o4)n3)[nH]c12 | 13 | 8.1 | > 1 | > 1 | 0.078 | > 10 µM | inactive | > 80 | > 80 | > 80 | > 80 | > 80 | 1 | > 80 | 470 | 1600 |  |  |  |  |
| COCCCOc1ccc(-c2nccc(-c3cc4c([nH]3)[C@@]3(CCCNC3)CNC4=O)n2)cn1 | 129 |  |  |  |  |  | inactive | > 80 | > 80 | > 80 | > 80 | > 80 |  | > 80 | > 10000 | > 10000 | 6900 |  |  |  |
| O=C1NC[C@@]2(CCCNC2)c2[nH]c(-c3ccnc(-c4cccnc4)n3)cc21 | 6.5 |  |  |  |  |  | inactive | > 80 | > 80 | > 80 | > 80 | > 80 |  | > 80 | 1600 | 1200 | 930 |  |  |  |
| O=C1NCC2(CCNCC2)c2[nH]c(-c3ccnc(-c4cc5ccccc5o4)n3)cc21 | 5.9 | 9.1 | > 1 | > 1 | < 0.006 | > 10 µM | inactive | > 80 | > 80 | > 80 | > 80 | > 80 |  | > 80 | 280 | 1200 |  |  |  |  |
